Reference: PubChem BioAssay (NCI)
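Where inhibition never reached the appropriate level, the endpoint shown equals the highest concentration tested. Otherwise, values were interpolated linearly from a five-concentration, 48-hour dose response in 96-well plates. Abbreviation: GI50, concentration required for 50% inhibition of growth. TGI is the concentration that stops growth completely.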

Legend:
Experiment in all cases: NCI-60 cell line screen, 48 h; in the data active means GI50 below about 0.43 µM; inactive means the rest
[1] = tested on: MOLT-4 leukemia
[2] = tested on: PC-3 prostate
[3] = tested on: HCT-15 colon
[4] = tested on: CAKI-1 renal
[5] = tested on: SK-MEL-28 melanoma
[6] = tested on: SF-539 CNS
[7] = tested on: MALME-3M melanoma
[8] = tested on: SNB-19 CNS
[9] = tested on: OVCAR-4 ovarian
[10] = tested on: BT-549 breast
[11] = tested on: SN12C renal
[12] = tested on: SF-268 CNS
[13] = tested on: T-47D breast
[14] = tested on: HOP-62 NSCLC
[15] = tested on: OVCAR-5 ovarian
[16] = tested on: SF-295 CNS
[17] = tested on: UO-31 renal
[18] = tested on: HCT-116 colon
[19] = tested on: HCC-2998 colon
[20] = tested on: K-562 leukemia
[21] = tested on: HS 578T breast
[22] = tested on: IGROV1 ovarian
[23] = tested on: SK-MEL-5 melanoma
[24] = tested on: RPMI-8226 leukemia
[25] = tested on: COLO 205 colon
[26] = tested on: SK-OV-3 ovarian
[27] = tested on: RXF 393 renal
[28] = tested on: NCI-H460 lung
[29] = tested on: KM12 colon
[30] = tested on: MDA-MB-231 breast
[31] = tested on: MCF7 breast
[32] = tested on: 786-0 renal
[33] = tested on: M14 melanoma
[34] = tested on: OVCAR-8 ovarian
[35] = tested on: NCI-H23 lung
[36] = tested on: CCRF-CEM leukemia
[37] = tested on: HL-60(TB) leukemia
[38] = tested on: MDA-MB-435
[39] = tested on: ACHN renal
[40] = tested on: SR leukemia
[41] = tested on: NCI-H522 lung
[42] = tested on: UACC-62 melanoma
[43] = tested on: NCI/ADR-RES ovarian
[44] = tested on: TK-10 renal
[45] = tested on: UACC-257 melanoma
[46] = tested on: A549 NSCLC
[47] = tested on: SNB-75 CNS
[48] = tested on: NCI-H226 lung
[49] = tested on: A498 renal
[50] = tested on: SW-620 colon
[51] = tested on: OVCAR-3 ovarian
[52] = tested on: HT29 colon
[53] = tested on: DU-145 prostate

FC(F)(F)c1ccc(-c2cnc(Cl)nc2NC2CCCCCC2)cc1
> 100 µM: TGI [1] | TGI [2] | TGI [3] | TGI [4] | TGI [5] | TGI [6] | TGI [7] | TGI [8] | TGI [9] | TGI [10] | TGI [11] | TGI [12] | TGI [13] | TGI [14] | TGI [15] | TGI [16] | TGI [17] | TGI [18] | TGI [19] | TGI [20] | TGI [21] | TGI [22] | TGI [23] | TGI [24] | TGI [25] | TGI [26] | TGI [27] | TGI [28] | TGI [29] | TGI [30] | TGI [31] | TGI [32] | TGI [33] | TGI [34] | TGI [35] | TGI [36] | TGI [37] | TGI [38] | TGI [39] | TGI [40] | TGI [41] | TGI [42] | TGI [43] | TGI [44] | TGI [45] | TGI [46] | TGI [47] | TGI [48] | TGI [49] | TGI [50] | TGI [51] | TGI [52] | TGI [53]
inactive: GI50 [1] 32.7 µM | GI50 [2] 28.7 µM | GI50 [3] > 100 µM | GI50 [4] 57.4 µM | GI50 [5] > 100 µM | GI50 [6] > 100 µM | GI50 [7] > 100 µM | GI50 [8] > 100 µM | GI50 [9] 38.7 µM | GI50 [10] > 100 µM | GI50 [11] > 100 µM | GI50 [12] > 100 µM | GI50 [13] 19.1 µM | GI50 [14] > 100 µM | GI50 [15] > 100 µM | GI50 [16] 69.7 µM | GI50 [17] > 100 µM | GI50 [18] 35.5 µM | GI50 [19] > 100 µM | GI50 [20] 54.1 µM | GI50 [21] > 100 µM | GI50 [22] > 100 µM | GI50 [23] 62.8 µM | GI50 [24] 8.03 µM | GI50 [25] 95.5 µM | GI50 [26] > 100 µM | GI50 [27] > 100 µM | GI50 [28] 73.1 µM | GI50 [29] 97.1 µM | GI50 [30] 36.4 µM | GI50 [31] 31.2 µM | GI50 [32] > 100 µM | GI50 [33] > 100 µM | GI50 [34] > 100 µM | GI50 [35] 61.1 µM | GI50 [36] 27.9 µM | GI50 [37] 24.9 µM | GI50 [38] > 100 µM | GI50 [39] > 100 µM | GI50 [40] 38.9 µM | GI50 [41] 45.4 µM | GI50 [42] > 100 µM | GI50 [43] > 100 µM | GI50 [44] > 100 µM | GI50 [45] > 100 µM | GI50 [46] > 100 µM | GI50 [47] 80.6 µM | GI50 [48] > 100 µM | GI50 [49] > 100 µM | GI50 [50] > 100 µM | GI50 [51] > 100 µM | GI50 [52] 71.1 µM | GI50 [53] > 100 µM
